Results as given in ChEMBL document CHEMBL1145817, “Conformationally constrained analogues of diacylglycerol. 19. Synthesis and protein kinase C binding affinity of diacylglycerol lactones bearing an N-hydroxylamide side chain” (J Med Chem, 2003).

Biological target: Protein kinase C alpha type (Homo sapiens, UniProt P17252)
Assay: Binding affinity for Protein kinase C alpha C1a or C1b domain

Ki	Compound
6.79 µM	CC(C)CC(C/C=C1\CC(CO)(CN(O)C(=O)C(C)(C)C)OC1=O)CC(C)C (configuration not stated)
6.98 µM	CC(C)CC(C/C=C1/CC(CO)(CN(O)C(=O)C(C)(C)C)OC1=O)CC(C)C (configuration not stated)
